Test results: patent US20210379063A1, “ORAL AMINODIHYDROPHTHALAZINEDIONE COMPOSITIONS AND THEIR USE IN THE TREATMENT OF NON-VIRAL HEPATITIS” (Immunopharma Plus D.O.O., priority 2018, published 2021)
Where “and” joins values, the source holds several entries; their conditions need not be identical. Identical values can stand only once. Like-named read-outs stand apart in the source and are kept apart here.

Assays:
porcine small intestine = details: for concentration in receptor compartment, small intestine, AVG / concentration in receptor compartment, small intestine: 10 mM donor solution; for concentration in receptor compartment, small intestine: single chambers
Method: Porcine Small Intestinal (SI) Permeability Procedure • Full thickness pig small intestinal delivered to Solubest on the day of the experiment. • Experiments were carried out on 6 slices 2 cm*2 cm with full thickness pig small intestinal sample • The intestinal was prepared so brush border side is facing the donor compartment. • According to Solubest protocol the excess mucus and connective tissue were removed • The receiver compartment contains 0.01M Phosphate Buffer pH 7.4 (PBS). • Receiver's samples were withdrawn at 5 time points (30 min, 60 min, 120 min, 4 hours and 6 hours). • Water pump was set to temp 38±1° C. in order to keep fixed temp in receptor department at 37±1° C.

macrophages = details: cited from earlier work
[1] = tested on: porcine large intestine (colon); assay: Porcine large intestine permeability, Franz cell; details: for concentration in receptor comp, large intestine, AVG / concentration in receptor compartment, large intestine: 10 mM donor solution; for concentration in receptor compartment, large intestine: single chambers
Method: The intestine was prepared so the mucous side will be facing the donor compartment.

[2] = tested on: Toxic hepatopathy degree II
Method: The patient received standard hepatic therapy: Duphalac 50 ml 3 times a day, Hepasol A 1000 ml, Heptral 800 mg. Detoxification therapy was carried out. […] The patient was monitored for another 1 month in a poison center.

[3] = tested on: toxic hepatitis caused by Acetaminophen; details: for ALT / AST / AST/ALT / GTP / Biochemiluminescence of blood plasma (BCL, quant): Acetaminophen + Tamerit
Method: The experiment was carried out on 45 adult male outbred white rats weighing 288.5±12.9 g, in accordance with the recommendations of the international ethics committees on the humane treatment of laboratory animals (EU Council Directive 86/609 EEC dated Nov. 24, 1986). To create an experimental model, an aqueous solution of Acetaminophen was administered intragastrically using a probe at a dosage of 110 mg/kg of body weight, which is about 2 times higher than the maximum allowable daily dose in humans. […] The drug was administered intragastrically, using a probe, in the form of an aqueous solution

[4] = tested on: reparative liver regeneration after partial hepatectomy
Text: Reparative liver regeneration was caused by the removal of ⅔ mass of the organ—partial hepatectomy by G. M. Higgis, R. M. Anderson.

[5] = tested on: hepatitis caused by pesticides
Text: Clinically, this is manifested by pallor, fatigue, shortness of breath on exertion, hypoxia of the organs, respectively, and of the organism as a whole. The lipid peroxidation that develops at the same time causes tissue damage, and in response, macrophages infiltrate and generate oxygen radicals and pro-inflammatory cytokines (TNF, IL, etc.), thereby contributing their destructive potential to the development of the pathological process.

[6] = tested on: liver after introduction of carrageenan; details: for ALT, units/l / AST, units/l: carrageenan + Tamerit
Method: The experiments were carried out on 25 male Wistar rats weighing 200-220 g, in accordance with the recommendations of the international ethics committees on the humane treatment of laboratory animals (EU Council Directive 86/609 EEC dated Nov. 24, 1986). […] Its mechanism of action is based on the inhibition of the process of phagocytosis and the activity of lysosomal hydrolases of mononuclear phagocytes. The drug was administered intragastrically through a probe in an aqueous solution at a dose of 10 mg/kg. The choice of time frame (4, 17 hours after surgery) corresponds to the phases of liver regeneration.

porcine stomach (cardia) = details: 10 mM donor solution
[7] = per os, enteric coated tablets, with standard hepatic therapy

Nc1cccc2c(=O)[n-][nH]c(=O)c12.[Na+] [Tamerit, aminodihydrophthalazinedione sodium]
concentration in receptor compartment, small intestine, AVG (porcine small intestine; 0 min): 0 ng/mL
concentration in receptor compartment, small intestine (porcine small intestine; 0 min): 0 ng/mL
concentration in receptor compartment, small intestine, AVG (porcine small intestine; 30 min): 1000 ng/mL
concentration in receptor compartment, small intestine, AVG (porcine small intestine; 60 min): 3000 ng/mL
concentration in receptor compartment, small intestine (porcine small intestine; 60 min, sodium): 3500 ng/mL and 2400 ng/mL
concentration in receptor compartment, small intestine, AVG (porcine small intestine; 120 min): 6000 ng/mL
concentration in receptor compartment, small intestine (porcine small intestine; 120 min, sodium): 5400 ng/mL and 5600 ng/mL and 9100 ng/mL and 5100 ng/mL
concentration in receptor compartment, small intestine, AVG (porcine small intestine; 240 min): 12000 ng/mL
concentration in receptor compartment, small intestine, AVG (porcine small intestine; 360 min): 23000 ng/mL
concentration in receptor compartment, small intestine (porcine small intestine; 360 min, sodium): 26400 ng/mL and 19500 ng/mL and 28700 ng/mL and 19000 ng/mL
Tamerit Permeability vs Propranolol Permeability (porcine small intestine; small intestine, FIG. 11): permeates better than propranolol
permeation compared with Propranolol (porcine small intestine; small intestine, after 4 hours): three time better than Propranolol
duration of reversible suppression of macrophage hyperactivity (macrophages; acute inflammatory diseases): 10 to 12 h
excretion (macrophages): rapidly excreted
toxicity (macrophages): extremely low toxicity
permeability through large intestine tissue, in words [1]: good permeability
concentration in receptor comp, large intestine, AVG ([1]; 0 min): 0 ng/mL
concentration in receptor compartment, large intestine ([1]; 0 min): 0 ng/mL
concentration in receptor comp, large intestine, AVG ([1]; 30 min): 5000 ng/mL
concentration in receptor comp, large intestine, AVG ([1]; 60 min): 7000 ng/mL
concentration in receptor comp, large intestine, AVG ([1]; 120 min): 17000 ng/mL
concentration in receptor comp, large intestine, AVG ([1]; 240 min): 35000 ng/mL
concentration in receptor compartment, large intestine ([1]; 240 min, sodium): 30600 ng/mL and 25000 ng/mL and 36400 ng/mL and 49000 ng/mL
concentration in receptor comp, large intestine, AVG ([1]; 360 min): 48000 ng/mL
concentration in receptor comp, large intestine, AVG ([1]; 720 min): 90000 ng/mL
time to reach steady state of permeation ([1]; large intestinal tissue): four
Recovery from donor comp, % ([1]; large intestine, 0 min): 0.00%
mg in receptor comp ([1]; large intestine, 0 min): 0.000 mg
Recovery from donor comp, % ([1]; large intestine, 30 min): 0.45%
mg in receptor comp ([1]; large intestine, 30 min): 0.026 mg
Recovery from donor comp, % ([1]; large intestine, 60 min): 0.63%
mg in receptor comp ([1]; large intestine, 60 min): 0.036 mg
Recovery from donor comp, % ([1]; large intestine, 120 min): 1.46%
mg in receptor comp ([1]; large intestine, 120 min): 0.084 mg
Recovery from donor comp, % ([1]; large intestine, 240 min): 3.07%
mg in receptor comp ([1]; large intestine, 240 min): 0.176 mg
Recovery from donor comp, % ([1]; large intestine, 360 min): 4.20%
mg in receptor comp ([1]; large intestine, 360 min): 0.242 mg
Tamerit Permeability vs Propranolol Permeability ([1]; large intestine, FIG. 11): permeates better than propranolol
permeation compared with Propranolol ([1]; large intestine, after 4 hours): as good as Propranolol
adverse effects ([2]; during the use of Tamerit): no adverse effects were noted
blood biochemical parameters [2, 7]: fully normalized
relief of symptoms of intoxication [2, 7]: highly effective
state of a solution containing 10 mM: supersaturated solution
ALT ([3]; 3rd day): 17.45 ± 1.3 U/L
AST ([3]; 3rd day): 23.61 ± 1.2 U/L
AST/ALT ([3]; 3rd day): 1.35 ± 0.03
GTP ([3]; 3rd day): 35.8 ± 1.2 U/L
ALT ([3]; 5th day): 12.2 ± 0.9 U/L
AST ([3]; 5th day): 15.0 ± 1.0 U/L
AST/ALT ([3]; 5th day): 1.24 ± 0.01
GTP ([3]; 5th day): 33.8 ± 0.9 U/L
ALT ([3]; 7th day): 12.0 ± 0.8 U/L
AST ([3]; 7th day): 16.01 ± 2.0 U/L
AST/ALT ([3]; 7th day): 1.33 ± 0.02
GTP ([3]; 7th day): 30.8 ± 1.8 U/L
ALT ([3]; 12th day): 18.0 ± 1.8 U/L
AST ([3]; 12th day): 22.1 ± 1.5 U/L
AST/ALT ([3]; 12th day): 1.22 ± 0.04
GTP ([3]; 12th day): 29.4 ± 1.5 U/L
Biochemiluminescence of blood plasma (BCL, quant) ([3]; 3 days): 213.0 ± 4.0 quant
Biochemiluminescence of blood plasma (BCL, quant) ([3]; 12 days): 215.6 ± 5.0 quant
signs of toxic hepatitis ([3]; rats treated with Tamerit intragastrically): less pronounced
Mitotic index, % ([4]; hepatectomy 4 hours + Tamerit): 2 ± 0.8 %
Nuclear cytoplasmic index ([4]; hepatectomy 4 hours + Tamerit): 0.40 ± 0.005
Number of binuclear cells, % ([4]; hepatectomy 4 hours + Tamerit): 16.6 ± 1.69%
The size of the nucleus of hepatocytes, μm ([4]; hepatectomy 4 hours + Tamerit): 8.0 ± 0.26 μm
Mitotic index, % ([4]; hepatectomy 17 hours + Tamerit): 5.5 ± 1.3 %
Nuclear cytoplasmic index ([4]; hepatectomy 17 hours + Tamerit): 0.319 ± 0.01
Number of binuclear cells, % ([4]; hepatectomy 17 hours + Tamerit): 29.83 ± 2.5 %
The size of the nucleus of hepatocytes, μm ([4]; hepatectomy 17 hours + Tamerit): 7.67 ± 0.28 μm
increase of the number of hepatocytes that divide by mitosis ([4]; regenerating liver): by an order of magnitude
AST and ALT ([5]; after the end of treatment, AST-80, ALT-98 before): within normal limits
Hemoglobin ([5]; at discharge after enteric-coated 100 mg tablets, 89 before): 120
patient's condition ([5]; third day from the start of treatment): improved
Mitotic index, % ([6]; Carrageenan 4 hours + Tamerit): 0.65 ± 0.25 %
Nuclear cytoplasmic index ([6]; Carrageenan 4 hours + Tamerit): 0.36 ± 0.01
Number of binuclear cells, % ([6]; Carrageenan 4 hours + Tamerit): 25.0 ± 3.58 %
Mitotic index, % ([6]; Carrageenan 17 hours + Tamerit): 0.48 ± 0.12 %
Nuclear cytoplasmic index ([6]; Carrageenan 17 hours + Tamerit): 0.35 ± 0.02
Number of binuclear cells, % ([6]; Carrageenan 17 hours + Tamerit): 29.2 ± 4.18 %
activity of aminotransferases ([6]; after carrageenan): completely restores the activity of aminotransferases to the parameters of healthy animals
ALT, units/l ([6]; 4 hours): 40.2 ± 4.0 units/l
AST, units/l ([6]; 4 hours): 85.4 ± 8.0 units/l
ALT, units/l ([6]; 17 hours): 42.2 ± 3.5 units/l
AST, units/l ([6]; 17 hours): 83.5 ± 4.5 units/l
concentration in receptor compartment, Tamerit stomach, AVG (porcine stomach (cardia); 0 min): 0 ng/mL
concentration in receptor compartment, Tamerit stomach (porcine stomach (cardia); 0 min, single chambers): 0 ng/mL
concentration in receptor compartment, Tamerit stomach, AVG (porcine stomach (cardia); 15 min): 50 ng/mL
concentration in receptor compartment, Tamerit stomach, AVG (porcine stomach (cardia); 30 min): 41 ng/mL
concentration in receptor compartment, Tamerit stomach, AVG (porcine stomach (cardia); 45 min): 69 ng/mL
concentration in receptor compartment, Tamerit stomach, AVG (porcine stomach (cardia); 90 min): 85 ng/mL
concentration in receptor compartment, Tamerit stomach, AVG (porcine stomach (cardia); 120 min): 104 ng/mL
